# Laboratory results reported in patent US20220023291A1, “COMPOSITIONS AND METHODS FOR REGULATING INFLAMMATION” (University of Virginia Patent Foundation, priority 2018, published 2022).
# Entries after “also recorded” stand apart in the source; their conditions may differ.
# Key:
# [1] = system: mice; details: mice treated with scopolamine, synthetic Aβ oligomer injection, or dizocilpine; cited from earlier work
# [2] = molecular target: sigma-1 receptor (Homo sapiens, UniProt Q99720); details: cited from earlier work
# [3] = system: muscarinic receptor; details: cited from earlier work
# [4] = system: tau hyperphosphorylation; details: cited from earlier work
# [5] = molecular target: T1, IRE1 endonuclease activity (Mus musculus, UniProt Q9EQY0); test: XBP1 splicing ratio by qPCR in BMDM; type: cell-based
# T1 construct: We prepared bone marrow derived macrophages (BMDM) from WT and S1R KO mice; endogenous in cells; host or cells: primary mouse bone marrow derived macrophages (WT and S1R KO, C57BL/6J background)
# Method: (§1) Tissue culture conditions and Reagents. HEK293 cells, primary lung fibroblasts and BMDM were isolated and maintained as described (41-43). Cells were treated with LPS (Sigma, L4391), 4μ8C (Tocris, 4479), tunicamycin (Tocris, 3516), PD98059 (Medchem Express HY-12028), JSH-23 (Medchem Express, Hy-13982), SP600125 (Medchem Express, HY-12041), cycloheximide (Tocris, 0970), lactacystin (Cayman Chemical, 70980), chloroquine (Fisher, ICN19391925), and STF 083010 (Medchem Express, HY-15845) as described in the text.
# cDNA synthesis and quantitative RT-PCR. Total RNA was extracted using an ISOLATE II RNA (Bioline, 52073) and cDNA synthesis was performed with the ISCRIPT™ kit (Bio-Rad, 170-8891). TaqMan Probes were obtained from Life Technologies (GAPDH: Mm99999915_g1; IL-6: Mm00446190_m1; pro-IL-1β: Mm00434228_m1; TNFα: Mm00443258_m1). Primers for IRE1 detection were GCACGUGAAUUGAUAGAGA (SEQ ID NO: 10) and UCUCUAUCAAUUCACGUGC (SEQ ID NO: 11). Primers for the detection of XBP1 were previously published (Lipson et al., 2008). RT-PCR was performed as described previously (Gaultier et al., 2009).
# cDNA synthesis and quantitative PCR. Total RNA was extracted using an ISOLATE II RNA kit (Bioline, 52073) and cDNA synthesis was performed with the SENSIFAST™ cDNA synthesis kit (Bioline, BIO-65054). TaqMan Probes were obtained from Thermo Fisher (GAPDH: Mm99999915_g1; IL-6: Mm00446190_m1; pro-IL-1β: Mm00434228_m1; IL10: Mm004396). Primers for the detection of XBP1, IL-8, and actin were previously published (Vandesompele et al., 2002; Kumar & Valdivia, 2008; Girard et al., 2009). qPCR was performed as described previously (Gaultier et al., 2008).
# [6] = system: FIP sepsis model mice; test: Fecal induced peritonitis (FIP); type: in vivo, mouse; details: for Survival: 1.5 g/kg fecal slurry
# Method: Fecal induced peritonitis (FIP). Fecal material was isolated from the caecum of age- and sex-matched WT animals coming from the UVA vivarium for FIGS. 10A-10D and 10L-10R or from Jackson Laboratory for FIGS. 12D-12O, resuspended in saline and passed through a […] strainer to remove large particles. The slurry was prepared fresh for each experiment. Core body temperature was measured and mice were scored with murine sepsis severity scale by two independent, blinded researchers (Shrum et al., 2014). Blood for serum ELISA was collected from facial vein at 3 hours post FIP induction. Where indicated, fluvoxamine in saline was administered intraperitoneally at a dose of 20 mg/kg, and ceftriaxone in saline was given at a dose of 100 mg/kg subcutaneously.
# [7] = system: BMDM; test: IL-6 ELISA on supernatant of LPS-stimulated BMDM; type: cell-based, mouse; details: 1 μg/mL LPS, 6 hours; for Difference in LPS-induced IL-6 secretion between WT and S1R KO BMDM: 20 μM JSH-23, 20 μM PD98059, 1 μM SP600125, 5 μM 4μ8C; for LPS-induced IL-6 secretion: WT and S1R KO BMDM, 20 μM JSH-23, 20 μM PD98059, 1 μM SP600125
# Method: as §1
# (§2) ELISA. ELISA for IL-6 and TNFα were performed as previously described (Remick et al., 2002). Antibodies used were: anti-mouse IL-6 MP5-20F3 (Biolegend, 504501) 0.5 μg/mL; biotin anti-mouse IL-6 MP5-32C11 (Biolegend, 504601) 1 μg/mL; anti-mouse TNFα (R&D systems, AF-410-NA) 0.5 μg/mL; biotin anti-mouse TNFα (R&D systems, BAF410) 0.25 μg/mL.
# Tissue culture conditions and Reagents. HEK293 mTLR4/MD2/CD14 (Invivogen, 293-mtlr4md2cd14), primary lung fibroblasts, and BMDM were isolated and maintained as described (Zhang et al., 2008; Seluanov et al., 2010). Cells and animals were treated with LPS (Sigma, L4391), 4μ8C (Tocris, 4479), APY-29 (Medchem Express HY-17537), PD98059 (Medchem Express HY-12028), JSH-23 (Medchem Express, HY-13982), SP600125 (Medchem Express, HY-12041), STF 083010 (Medchem Express, HY-15845), Fluvoxamine (Medchem Express, HY-B0103A), and Ceftriaxone (Hospira, NDC: 0409-7337-01), as described in the text.
# as §2, with “TNF-α” for “TNFα”
# [8] = system: LPS challenged mice; test: In vivo LPS (endotoxin) challenge; parameters: species or system mouse
# Method: Endotoxin challenge. In vivo endotoxin challenge was performed on mice at 8-12 weeks of age. LPS from E. coli 0111:B4 (Sigma-Aldrich, L2630) was injected intraperitoneally as described in the manuscript. STF 083010 (Medchem Express, HY-15845) was resuspended in 33% Kolliphor-EL (Sigma, C5135) and administered intraperitoneally at 30 mg/kg immediately after and again 24 hours after LPS injection.
# Peritoneal contents collection. Three hours after LPS injection, peritoneal cavities were washed with 2.5 mL of ice-cold PBS+5 mM EDTA, and then centrifuged to pellet cells. Supernatants were collected for ELISA, and the remaining cells were washed and stored as previously described (Gaultier et al., 2008).
# LPS challenge. In vivo LPS challenge was performed on adult mice (8-12 weeks of age). LPS from E. coli 0111:B4 (Sigma-Aldrich, L2630) was injected intraperitoneally, as described in the manuscript. STF083010 (Medchem Express, HY-15845) was resuspended in 33% Kolliphor-EL (Sigma, C5135) and administered intraperitoneally at 30 mg/kg immediately after and again 24 hours after LPS injection. Fluvoxamine was resuspended in saline and administered at 20 mg/kg as indicated in the text. Blood for serum ELISA was collected from facial vein at the peak serum concentration of TNF-α and IL-6 (Copeland et al., 2005a).
# Peritoneal exudates collection. Peritoneal cavities content were collected 3 hours after LPS injection in PBS+5 mM EDTA, then centrifuged to pellet cells. Supernatants were collected for ELISA, and cells were washed and stored as previously described (Gaultier et al., 2008).
# [9] = system: HEK293 cells; test: Immunoblot for total IRE1 in HEK293 cells overexpressing IRE1 and S1R; type: cell-based; details: 5 μM lactacystin or 30 μM chloroquine, 6 hours
# Text: Western blot. […] Linear level adjustments were applied to entire images to enhance visualization.
# Transfection of proteins for overexpression.
# [10] = system: heparinized peripheral blood from healthy donors; test: Human whole blood stimulation ex vivo with LPS, multiplex cytokine analysis; type: cell-based; details: 10 ng/mL LPS, 20 μM fluvoxamine, 4 hours
# Method: Human whole blood stimulation. Study participants were healthy adults (ages 18-45). The study was approved by the Institutional Review Board at the University of Virginia, and all participants signed informed consent before enrollment. Blood was collected into heparinized vacuum tube, then stimulated with 10 ng/mL LPS+/−20 μM fluvoxamine for 4 hours, as described (Thurm & Halsey, 2005). Cytokine concentrations were determined by multiplex analysis.
# [11] = treatment 90 min post FIP induction, fluvoxamine 20 mg/kg i.p. and/or ceftriaxone 100 mg/kg s.c.
# [12] = LPS 2 mg/kg co-administered with STF 30 mg/kg
# [13] = LPS 2 mg/kg, STF 30 mg/kg i.p. at 0 hours and 24 hours
# [14] = LPS 6 mg/kg, fluvoxamine 20 mg/kg at the same time as LPS
# Sequence of sigma-1 receptor (Q99720 whole entry): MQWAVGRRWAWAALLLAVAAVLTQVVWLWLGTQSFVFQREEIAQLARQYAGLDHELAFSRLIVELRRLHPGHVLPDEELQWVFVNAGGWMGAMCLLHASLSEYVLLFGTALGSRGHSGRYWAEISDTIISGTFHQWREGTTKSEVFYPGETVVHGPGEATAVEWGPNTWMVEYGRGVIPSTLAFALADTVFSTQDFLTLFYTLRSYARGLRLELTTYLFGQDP
# T1 sequence (Q9EQY0 21-977): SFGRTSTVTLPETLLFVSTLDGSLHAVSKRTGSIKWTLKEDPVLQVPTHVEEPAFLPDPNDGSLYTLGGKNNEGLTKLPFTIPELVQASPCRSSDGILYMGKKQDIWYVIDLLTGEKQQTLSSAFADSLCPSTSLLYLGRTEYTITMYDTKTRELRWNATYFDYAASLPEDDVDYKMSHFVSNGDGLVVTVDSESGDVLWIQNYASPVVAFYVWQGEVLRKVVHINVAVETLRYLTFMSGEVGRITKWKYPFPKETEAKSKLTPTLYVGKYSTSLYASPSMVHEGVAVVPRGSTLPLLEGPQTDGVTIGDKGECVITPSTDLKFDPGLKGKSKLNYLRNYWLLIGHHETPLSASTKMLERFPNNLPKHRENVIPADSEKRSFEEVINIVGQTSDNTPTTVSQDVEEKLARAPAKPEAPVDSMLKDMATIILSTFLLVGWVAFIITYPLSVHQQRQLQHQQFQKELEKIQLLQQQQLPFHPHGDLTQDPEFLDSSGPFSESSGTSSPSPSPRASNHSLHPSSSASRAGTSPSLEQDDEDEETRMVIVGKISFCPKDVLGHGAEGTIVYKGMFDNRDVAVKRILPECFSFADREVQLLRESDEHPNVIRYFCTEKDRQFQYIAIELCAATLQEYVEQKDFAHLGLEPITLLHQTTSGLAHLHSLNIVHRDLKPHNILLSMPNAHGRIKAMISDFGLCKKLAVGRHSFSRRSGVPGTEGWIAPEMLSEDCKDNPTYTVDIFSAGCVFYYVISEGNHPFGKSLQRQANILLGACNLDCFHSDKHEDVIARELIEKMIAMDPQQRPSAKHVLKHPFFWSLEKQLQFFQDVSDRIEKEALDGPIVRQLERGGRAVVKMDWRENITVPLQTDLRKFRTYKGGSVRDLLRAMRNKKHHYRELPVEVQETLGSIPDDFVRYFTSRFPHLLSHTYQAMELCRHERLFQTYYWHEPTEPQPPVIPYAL
compound,measurement,setting,value
"CN(C)CC1CCOC1(c1ccccc1)c1ccccc1.Cl (centres unmarked) [ANAVEX® 2-73, tetrahydro-N,N-dimethyl-2,2-diphenyl-3-furanmethanamine hydrochloride]",Memory and neuroprotection effects,[1],memory-preserving and neuroprotective effects
same,Affinity for / binding to sigma-1 receptor (S1R),[2],high nanomolar range
same,Binding to the muscarinic receptor,[3],low micromolar range
same,Tau hyperphosphorylation,[4],may block tau hyperphosphorylation
c1cc(Nc2cc(C3CC3)[nH]n2)nc(Nc2ccc3nc[nH]c3c2)n1 [APY29],XBP1 splicing amounts after forced IRE1 activation,"[5]; WT vs S1R KO BMDM, activator of IRE1, 6 hours",equal in both genotypes
CO/N=C(\C(=O)N[C@@H]1C(=O)N2C(C(=O)O)=C(CSc3nc(=O)c(=O)[nH]n3C)CS[C@H]12)c1csc(N)n1 [Ceftriaxone],Survival,[6]; [11],enhancing survival
Cc1ccc(NCCCc2ccccc2)c(N)c1 [JSH-23],Difference in LPS-induced IL-6 secretion between WT and S1R KO BMDM,[7],did not eliminate the difference
same,LPS-induced IL-6 secretion,[7],reduced LPS-induced IL-6 secretion
COc1cccc(-c2cc(=O)c3ccccc3o2)c1N [PRESENTLY DISCLOSED 98059],Difference in LPS-induced IL-6 secretion between WT and S1R KO BMDM,[7],without altering the ability of S1R KO BMDM to produce more IL-6
same,LPS-induced IL-6 secretion,[7],significant decrease in IL-6 production
"O=S(=O)(N=Cc1c(O)ccc2ccccc12)c1cccs1 [STF, N-[(2-Hydroxy-1-naphthalenyl)methylene]-2-thiophenesulfonamide]",Blocking IL-6 secretion in S1R KO BMDM stimulated with LPS,"[7]; STF 083010 (60 μM) compared with 4μ8C (5 μM), FIG. 7A",as effective as 4μ8C
same,"IRE1 inhibitor effectiveness (IL-6 ELISA, FIG. 11C)","[7]; BMDM, 20 μM STF",effective IRE1 inhibitor
same,Median survival of S1R KO mice,[8]; [12],113 h
same,Mortality of S1R KO mice,[8]; [12],62.5%
same,LPS induced mortality / survival of S1R KO mice,[8]; [13],largely rescued; also recorded: spared KO mice from LPS induced mortality; also recorded: clear benefit in S1R KO survival
same,Survival of WT mice,[8]; [13],did not significantly affect the survival of WT mice
same,Serum IL-6,"[8]; S1R KO mice, LPS 2 mg/kg, STF 30 mg/kg i.p., serum 3 hours after LPS",significantly decreased serum IL-6; also recorded: trend toward decreased IL-6
same,IL-6 in the peritoneal exudate,"[8]; S1R KO mice, LPS 2 mg/kg, STF 30 mg/kg, 3 hours after LPS",corrected by STF treatment
CCN(CC)CCCC(C)Nc1ccnc2cc(Cl)ccc12 (centres unmarked) [chloroquine],Rescue of IRE1 protein levels in the presence of S1R overexpression,[9],Neither lactacystin nor chloroquine treatment could rescue IRE1 protein levels
COCCCC/C(=N\OCCN)c1ccc(C(F)(F)F)cc1 [fluvoxamine],Affinity for / binding to sigma-1 receptor (S1R),[2],low-nanomolar affinity; also recorded: high affinity
same,Breadth of modulation of inflammatory mediators (FIG. 14),[10],limited to a subset of inflammatory mediators
same,IL-8 production,[10],decreased
same,LPS-induced IL-1β,[10],significantly reduced
same,LPS-induced IL-6,[10],significantly reduced
same,LPS-induced IL-12 p40,[10],significantly reduced
same,Rectal temperature,"[8]; C57BL/6J, 24 hours after LPS, fluvoxamine 90 min post LPS challenge",improved
same,Clinical score (total murine sepsis score),"[8]; C57BL/6J, LPS 6 mg/kg, fluvoxamine 90 min post LPS challenge",improved
same,Survival,"[8]; C57BL/6J, LPS 6 mg/kg, therapeutic fluvoxamine 90 min post LPS challenge",significantly enhanced survival
same,Mortality of S1R KO animals,[8]; [14],no significant effect
same,Mortality of WT mice,[8]; [14],significantly protected WT mice from mortality
same,Serum IL-6 in S1R KO animals,[8]; [14],no significant effect
same,Serum IL-6 in WT mice,"[8]; LPS 6 mg/kg, fluvoxamine 20 mg/kg at the same time as LPS, 3 hours after LPS",reduced serum IL-6
same,Survival,[6]; therapeutic fluvoxamine 30 min post FIP induction,significantly enhanced survival
same,Survival,[6]; [11],as efficacious in enhancing survival as Ceftriaxone
same,Rectal temperature,"[6]; C57BL/6J, 24 hours after FIP induction, fluvoxamine 30 min post FIP induction",improved
same,Clinical score (total murine sepsis score),"[6]; C57BL/6J, fluvoxamine 30 min post FIP induction",improved
CC(=O)N[C@@H](CSC(=O)[C@]1([C@@H](O)C(C)C)NC(=O)[C@H](C)[C@@H]1O)C(=O)O [lactacystin],Rescue of IRE1 protein levels in the presence of S1R overexpression,[9],Neither lactacystin nor chloroquine treatment could rescue IRE1 protein levels
tunicamycin,XBP1 splicing after tunicamycin,"[5]; S1R KO vs WT BMDM, 5 μM tunicamycin, 6 hours",elevated XBP1 splicing in S1R KO BMDM
